Legend:
[1] = target: T1, sucrose transporter P62 (StSUT1) (Solanum tuberosum, UniProt Q43653); assay: [14C]-sucrose uptake by yeast strain SUSY-7-P62 (StSUT1) expressing the potato sucrose transporter; type: cell-based; details: [14C]-sucrose uptake, pH 3.8, read-out: Activity relative to the control [%]
T1 construct: whole-cell [14C]-sucrose uptake; no tag or borders given
T1 sequence (Q43653 1-516): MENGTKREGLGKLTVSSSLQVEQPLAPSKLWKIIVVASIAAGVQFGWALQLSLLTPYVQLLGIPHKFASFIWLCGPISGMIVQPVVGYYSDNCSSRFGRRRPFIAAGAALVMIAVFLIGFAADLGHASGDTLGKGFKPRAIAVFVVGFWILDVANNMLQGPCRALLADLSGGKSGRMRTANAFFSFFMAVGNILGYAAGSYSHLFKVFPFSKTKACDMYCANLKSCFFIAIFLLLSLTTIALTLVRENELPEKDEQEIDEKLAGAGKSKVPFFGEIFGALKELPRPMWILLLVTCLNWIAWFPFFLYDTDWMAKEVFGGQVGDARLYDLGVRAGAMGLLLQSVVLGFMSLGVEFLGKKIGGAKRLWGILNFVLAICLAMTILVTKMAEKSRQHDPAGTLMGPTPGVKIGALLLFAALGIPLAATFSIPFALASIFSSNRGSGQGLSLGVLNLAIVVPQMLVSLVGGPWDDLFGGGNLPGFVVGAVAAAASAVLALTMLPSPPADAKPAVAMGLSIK
Method in brief: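 SUSY7 yeast expressing potato StSUT1, log-phase cells at 50 g/l wet weight, glucose-energised, pH 3.8. Test substances added 30 s before 0.2 mmol/l [14C]-sucrose solution; uptake sampled 20–240 s by filtration and scintillation, expressed as percent of uninhibited control; untransformed SUSY7 as further control.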

[2] = target: T2, ammonium transporter AMT1 (Arabidopsis thaliana, UniProt P54144); assay: cell-based; details: pH 7; [14C]-methylamine uptake; tested substance 10 μM; read-out: Activity relative to the control [%]
T2 construct: expressed in transfected cells; host or cells: Saccharomyces cerevisiae 26972c (mutations in MEP1 and MEP2)
T2 sequence (P54144 1-501): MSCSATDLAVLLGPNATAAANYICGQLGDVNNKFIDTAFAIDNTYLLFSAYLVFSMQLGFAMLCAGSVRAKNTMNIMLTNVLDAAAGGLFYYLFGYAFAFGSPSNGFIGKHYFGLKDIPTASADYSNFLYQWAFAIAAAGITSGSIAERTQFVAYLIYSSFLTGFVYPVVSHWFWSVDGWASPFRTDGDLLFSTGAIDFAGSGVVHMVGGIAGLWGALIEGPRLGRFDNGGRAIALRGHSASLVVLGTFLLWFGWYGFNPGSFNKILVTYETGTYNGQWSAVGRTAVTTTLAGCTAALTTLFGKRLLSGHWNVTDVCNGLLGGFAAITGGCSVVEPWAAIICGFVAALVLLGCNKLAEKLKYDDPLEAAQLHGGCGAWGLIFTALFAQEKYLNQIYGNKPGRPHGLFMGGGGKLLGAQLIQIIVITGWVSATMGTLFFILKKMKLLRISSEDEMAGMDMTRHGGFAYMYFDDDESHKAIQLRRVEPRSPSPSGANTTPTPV

sucrose transporters = details: Bush, 1989, Plant Physiol. 89: 1318-1323; result in words; cited from earlier work

remaining activity at 500 µM ([1]; tested substance 0.5 mM) [%]	SMILES	remaining activity at 10 µM ([1]; tested substance 10 μM) [%]	remaining activity at 10 µM [2] [%]	Inhibition of sucrose transport (sucrose transporters)
–	N#CC(C#N)=NNc1cccc(Cl)c1 [CCCP]	9	40	–
6	CCOC(=O)OC(=O)OCC [DEPC, diethyl pyrocarbonate]	–	–	highly effective transport inhibitors
